Here are results for 35 compounds from patent US10703765B2 (priority 2014, dated 2020).

Where a name gives a salt, the structure may show the parent alone. Where only a bound is given, the exact number is not on record here.

The target of one assay is human σ1 receptor (Homo sapiens, UniProt Q99720). The experiment in a line: biochemical. The format is binding.
human σ1 receptor, sequence (Q99720 whole entry): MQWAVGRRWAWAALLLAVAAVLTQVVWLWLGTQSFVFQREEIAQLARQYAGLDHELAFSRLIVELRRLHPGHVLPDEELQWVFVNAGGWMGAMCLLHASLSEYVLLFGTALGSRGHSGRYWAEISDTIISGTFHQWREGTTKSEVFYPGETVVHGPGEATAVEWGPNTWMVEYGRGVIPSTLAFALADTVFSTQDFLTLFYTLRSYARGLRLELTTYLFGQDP
Settings: not given
Also on record: μ and σ1 dual binding: key to the marks not given beside the values.
Regarding `CC1OC2(CCN(CCc3cc(C(F)(F)F)ccn3)CC2)CN(c2ccccc2)C1=O` (centres unmarked) [Example 28, 2-methyl-4-phenyl-9-(2-(4-(trifluoromethyl)pyridin-2-yl)ethyl)-1-oxa-4,9-diazaspiro[5.5]undecan-3-one hydrochloride], the Ki is less than 100 nM. The same measure, in the same setting: the result for `CC1OC2(CCN(CCc3cccc(N)n3)CC2)CN(c2ccccc2)C1=O` (centres unmarked) [Example 29, 9-(2-(6-aminopyridin-2-yl)ethyl)-2-methyl-4-phenyl-1-oxa-4,9-diazaspiro[5.5]undecan-3-one] reads less than 500 nM; that for `CC1OC2(CCN(CCc3cccc(C(F)(F)F)n3)CC2)CN(c2ccccc2F)C1=O` (centres unmarked) [Example 31, 4-(2-fluorophenyl)-2-methyl-9-(2-(6-(trifluoromethyl)pyridin-2-yl)ethyl)-1-oxa-4,9-diazaspiro[5.5]undecan-3-one hydrochloride], less than 500 nM.

With `CC1OC2(CCN(CCc3ncccc3C(F)(F)F)CC2)CN(c2ccccc2)C1=O` (centres unmarked) [Example 33, 2-methyl-4-phenyl-9-(2-(3-(trifluoromethyl)pyridin-2-yl)ethyl)-1-oxa-4,9-diazaspiro[5.5]undecan-3-one hydrochloride], the Ki was less than 500 nM. On the same count and under the same terms, for `CC1OC2(CCN(CCc3ncccc3Cl)CC2)CN(c2ccccc2)C1=O` (centres unmarked) [Example 37, 9-(2-(3-chloropyridin-2-yl)ethyl)-2-methyl-4-phenyl-1-oxa-4,9-diazaspiro[5.5]undecan-3-one hydrochloride] the value was less than 500 nM; for `CC1OC2(CCN(CCc3ccc(Cl)cn3)CC2)CN(c2ccccc2)C1=O` (centres unmarked) [Example 38, 9-(2-(5-chloropypridin-2-yl)ethyl)-2-methyl-4-phenyl-1-oxa-4,9-diazaspiro[5.5]undecan-3-one hydrochloride], less than 500 nM.

Consider `CC1OC2(CCN(CCc3ccnc(C(F)(F)F)c3)CC2)CN(c2ccccc2)C1=O.Cl` (centres unmarked) [Example 40, 2-methyl-4-phenyl-9-(2-(2-(trifluoromethyl)pyridin-4-yl)ethyl)-1-oxa-4,9-diazaspiro[5.5]undecan-3-one hydrochloride], for which the “μ and σ1 dual binding” value is given as “++”.

In the case of `CC1OC2(CCN(CCc3ncccc3Cl)CC2)CN(c2cnccc2C(F)(F)F)C1=O.Cl` (centres unmarked) [Example 44, 9-(2-(3-chloropyridin-2-yl)ethyl)-2-methyl-4-(4-(trifluoromethyl)pyridin-3-yl)-1-oxa-4,9-diazaspiro[5.5]undecan-3-one hydrochloride], the “μ and σ1 dual binding” value was “++”.

On to `CC1OC2(CCN(CCc3cccc(C(F)(F)F)n3)CC2)CN(Cc2ccc(F)cn2)C1=O.Cl` (centres unmarked) [Example 49, 4-((5-fluoropyridin-2-yl)methyl)-2-methyl-9-(2-(6-(trifluoromethyl)pyridin-2-yl)ethyl)-1-oxa-4,9-diazaspiro[5.5]undecan-3-one hydrochloride], for which the “μ and σ1 dual binding” value is on record as “++”.

Consider `CC1OC2(CCN(CCc3ccncc3Cl)CC2)CN(c2ccccc2)C1=O` (centres unmarked) [Example 50, 9-(2-(3-chloropyridin-4-yl)ethyl)-2-methyl-4-phenyl-1-oxa-4,9-diazaspiro[5.5]undecan-3-one hydrochloride], for which the Ki is less than 500 nM.

Regarding `CC1OC2(CCN(CCc3cccs3)CC2)CN(c2ccccc2)C1=O` (centres unmarked) [Example 53, 2-methyl-4-phenyl-9-(2-(thiophen-2-yl)ethyl)-1-oxa-4,9-diazaspiro[5.5]undecan-3-one], the Ki is less than 100 nM. In the case of `COc1ccccc1CCN1CCC2(CC1)CN(c1ccccc1)C(=O)C(C)O2` (centres unmarked) [Example 57, 9-(2-methoxyphenethyl)-2-methyl-4-phenyl-1-oxa-4,9-diazaspiro[5.5]undecan-3-one hydrochloride], the Ki was less than 100 nM. Consider `CC1OC2(CCN(CC3CCOCC3)CC2)CN(c2ccccc2)C1=O.Cl` (centres unmarked) [Example 59, 2-methyl-4-phenyl-9-((tetrahydro-2H-pyran-4-yl)methyl)-1-oxa-4,9-diazaspiro[5.5]undecan-3-one hydrchloride], for which the “μ and σ1 dual binding” value is on record as “++”. Consider `CC1OC2(CCN(CCCc3ccccc3)CC2)CN(c2ccccc2)C1=O` (centres unmarked) [Example 60, 2-methyl-4-phenyl-9-(3-phenylpropyl)-1-oxa-4,9-diazaspiro[5.5]undecan-3-one hydrochloride], for which the Ki is less than 500 nM. On to `Cc1ncsc1CCN1CCC2(CC1)CN(c1ccccc1)C(=O)C(C)O2` (centres unmarked) [Example 61, 2-methyl-9-(2-(4-methylthiazol-5-yl)ethyl)-4-phenyl-1-oxa-4,9-diazaspiro[5.5]undecan-3-one hydrochloride], for which the Ki was less than 500 nM. Still for that read-out and setting: for `CC1OC2(CCN(CCn3ccc4ccccc43)CC2)CN(c2ccccc2)C1=O` (centres unmarked) [Example 62, 9-(2-(1H-indol-1-yl)ethyl)-2-methyl-4-phenyl-1-oxa-4,9-diazaspiro[5.5]undecan-3-one hydrochloride] the value was less than 100 nM.

The assay is the same for the next values; noted with them: combined class from Ki-σ1 (human σ1 receptor, A1) and Ki-μ (human μ-opioid receptor, A2) radioligand binding.
Take `CC1OC2(CCN(CCc3ccnc(N)c3)CC2)CN(c2ccccc2)C1=O` (centres unmarked) [Example 32, 9-(2-(2-aminopyridin-4-yl)ethyl)-2-methyl-4-phenyl-1-oxa-4,9-diazaspiro[5.5]undecan-3-one]: the “μ and σ1 dual binding” value is listed as “++”. Same read-out and setting: the result for `COc1ccnc(CCN2CCC3(CC2)CN(c2ccccc2)C(=O)C(C)O3)c1` (centres unmarked) [Example 35, 9-(2-(4-methoxypyridin-2-yl)ethyl)-2-methyl-4-phenyl-1-oxa-4,9-diazaspiro[5.5]undecan-3-one] reads “++”.

As for `CC1OC2(CCN(CCc3cc(C#N)ccn3)CC2)CN(c2ccccc2)C1=O` (centres unmarked) [Example 41, 2-(2-(2-methyl-3-oxo-4-phenyl-1-oxa-4,9-diazaspiro[5.5]undecan-9-yl)ethyl)isonicotinonitrile], the “μ and σ1 dual binding” value was “++”. Same read-out and setting: the result for `COc1ccc(CCN2CCC3(CC2)CN(c2ccccc2)C(=O)CO3)cc1` [Example 52, 9-(4-methoxyphenethyl)-4-phenyl-1-oxa-4,9-diazaspiro[5.5]undecan-3-one] reads “++”. The same measure, in the same setting: for `CC1OC2(CCN(CCn3cccn3)CC2)CN(c2ccccc2)C1=O` (centres unmarked) [Example 56] the value was “++”.

Still in this assay, the particulars now being: read-out: μ and σ1 dual binding.
In the case of `CC1OC2(CCN(CCc3cccnc3[N+](=O)[O-])CC2)CN(c2ccccc2)C1=O` (centres unmarked) [Example 27, 2-methyl-9-(2-(2-nitropyridin-3-yl)ethyl)-4-phenyl-1-oxa-4,9-diazaspiro[5.5]undecan-3-one], the Ki is more than 500 nM.

For the compound `CC1OC2(CCN(CCc3cc(N)ccn3)CC2)CN(c2ccccc2)C1=O` (centres unmarked) [Example 30, 9-(2-(4-aminopyridin-2-yl)ethyl)-2-methyl-4-phenyl-1-oxa-4,9-diazaspiro[5.5]undecan-3-one hydrochloride], the Ki was more than 500 nM. The same measure, in the same setting: the result for `CC1OC2(CCN(CCc3ccc(C(F)(F)F)cn3)CC2)CN(c2ccccc2)C1=O` (centres unmarked) [Example 34, 2-methyl-4-phenyl-9-(2-(5-(trifluoromethyl)pyridin-2-yl)ethyl)-1-oxa-4,9-diazaspiro[5.5]undecan-3-one hydrochloride] reads more than 500 nM; that for `CC1OC2(CCN(CCc3ccc(C#N)cn3)CC2)CN(c2ccccc2)C1=O` (centres unmarked) [Example 36, 6-(2-(2-methyl-3-oxo-4-phenyl-1-oxa-4,9-diazaspiro[5.5]undecan-9-yl)ethyl)nicotinonitrile hydrochloride], more than 500 nM; that for `CC(C)C1OC2(CCN(CCc3cccnc3[N+](=O)[O-])CC2)CN(c2ccccc2F)C1=O` (centres unmarked) [Example 39, 4-(2-fluorophenyl)-2-isopropyl-9-(2-(2-nitropyridin-3-yl)ethyl)-1-oxa-4,9-diazaspiro[5.5]undecan-3-one], more than 500 nM. Turning to `CC1OC2(CCN(CCc3cccc(N)n3)CC2)CN(c2cnccc2C(F)(F)F)C1=O` (centres unmarked) [Example 42, 9-(2-(6-aminopyridin-2-yl)ethyl)-2-methyl-4-(4-(trifluoromethyl)pyridin-3-yl)-1-oxa-4,9-diazaspiro[5.5]undecan-3-one hydrochloride], the Ki was more than 500 nM. For `CC1OC2(CCN(CCc3cccnc3[N+](=O)[O-])CC2)CN(c2cnccc2C(F)(F)F)C1=O` (centres unmarked) [Example 43, 2-methyl-9-(2-(2-nitropyridin-3-yl)ethyl)-4-(4-(trifluoromethyl)pyridin-3-yl)-1-oxa-4,9-diazasprio[5.5]undecan-3-one], the Ki was more than 500 nM. On the same count and under the same terms, for `CC1OC2(CCN(CCc3ncccc3Cl)CC2)CN(Cc2ccc(C(F)(F)F)cn2)C1=O` (centres unmarked) [Example 45, 9-(2-(3-chloropyridin-2-yl)ethyl)-2-methyl-4-((5-(trifluoromethyl)pyridin-2-yl)methyl)-1-oxa-4,9-diazaspiro[5.5]undecan-3-one hydrochloride] the value was less than 100 nM; for `CC1OC2(CCN(CCc3ncccc3Cl)CC2)CN(Cc2ccc(F)cn2)C1=O` (centres unmarked) [Example 46, 9-(2-(3-chloropyridin-2-yl)ethyl)-4-((5-fluoropyridin-2-yl)methyl)-2-methyl-1-oxa-4,9-diazaspiro[5.5]undecan-3-one hydrochloride], less than 500 nM; for `CC1OC2(CCN(CCc3ncccc3F)CC2)CN(Cc2ccc(F)cn2)C1=O` (centres unmarked) [Example 47, 9-(2-(3-fluoropyridin-2-yl)ethyl)-4-((5-fluoropyridin-2-yl)methyl)-2-methyl-1-oxa-4,9-diazaspiro[5.5]undecan-3-one hydrochloride], less than 500 nM. Still for that read-out and setting: for `CC1OC2(CCN(CCc3ncccc3F)CC2)CN(c2cccnc2C(F)(F)F)C1=O` (centres unmarked) [Example 48, 9-(2-(3-fluoropyridin-2-yl)ethyl)-2-methyl-4-(2-(trifluoromethyl)pyridin-3-yl)-1-oxa-4,9-diazaspiro[5.5]undecan-3-one] the value was more than 500 nM; for `CC1OC2(CCN(CCc3cccc(F)c3)CC2)CN(c2ccccc2)C1=O` (centres unmarked) [Example 54, 9-(3-fluorophenethyl)-2-methyl-4-phenyl-1-oxa-4,9-diazaspiro[5.5]undecan-3-one hydrochloride], less than 100 nM. On the same count and under the same terms, for `CC1OC2(CCN(CCc3ccc(F)cc3)CC2)CN(c2ccccc2)C1=O` (centres unmarked) [Example 55, 9-(4-fluorophenethyl)-2-methyl-4-phenyl-1-oxa-4,9-diazaspiro[5.5]undecan-3-one hydrochloride] the value was less than 100 nM; for `CC1OC2(CCN(CCc3ccccn3)CC2)CN(c2ccccc2)C1=O` (centres unmarked) [Example 58, 2-methyl-4-phenyl-9-(2-(pyridin-2-yl)ethyl)-1-oxa-4,9-diazaspiro[5.5]undecan-3-one], less than 100 nM.
